This note sets out measurements from ChEMBL document CHEMBL1201862, “PubChem BioAssay data set” (2004).

SMILES strings stand for the structures.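 The compound was tested at five concentrations on cells cultured in 96-well plates, with a 48-hour exposure period. The concentration for 50% growth inhibition is given as GI50.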 The source made the active and inactive calls. Rule as the data show it: active = GI50 up to about 1.1 µM and inactive = higher.

Test systems include A498; A549; ACHN; CAKI-1; CCRF-CEM; COLO 205; HCT-116; IGROV-1; KM12; M14; MDA-MB-435; NCI-H23; SF-268; SK-MEL-2; SK-MEL-5; SR; U-251; UACC-62; MDA-N; SF-539.
Holding throughout (experiment): NCI anticancer screen, dose series, 48 h

Take `CCCCCCCC/C=C\CCCCCCCC(=O)OC[C@]1(CO)CCC(=O)O1`: the GI50 in the assay with A498, in the assay on A549, in the assay with ACHN, in the assay with CAKI-1, in the assay with CCRF-CEM and in the assay with COLO 205 was > 100 µM (inactive) in each case. The GI50 with HCT-116, in the assay with IGROV-1, with KM12, with M14, with MDA-MB-435 and in the assay with NCI-H23 was > 100 µM (inactive) in each case. Moreover, the GI50 in the assay on SF-268, with SK-MEL-2, in the assay on SK-MEL-5, in the assay on SR, in the assay on U-251 and in the assay on UACC-62 was > 100 µM (inactive) throughout.

Consider `COc1cccc([C@@H]2CC(=O)c3cc4c(cc3N2)OCO4)c1`, for which the GI50 with A498, in the assay on A549, in the assay with ACHN, in the assay with CAKI-1, in the assay with CCRF-CEM and in the assay on COLO 205 was > 100 µM (inactive) each time. Further, the GI50 is > 100 µM (inactive) in the assay on HCT-116; > 100 µM (inactive) in the assay with KM12; > 100 µM (inactive) in the assay on M14; 71.6 µM (inactive) with MDA-MB-435; > 100 µM (inactive) in the assay on MDA-N; > 100 µM (inactive) in the assay with SF-268. The GI50 in the assay with SF-539 is > 100 µM (inactive); with SK-MEL-2 it was > 100 µM (inactive); in the assay with SK-MEL-5, 96.8 µM (inactive); in the assay with U-251, > 100 µM (inactive); in the assay on UACC-62 it was 65.3 µM (inactive).

With `Nc1ccc(C(=O)NN2C(=O)[C@H](Cl)C2c2ccc(Cl)cc2)cc1` (some centres undefined), the GI50 with A549 was 2.45 µM (inactive); in the assay with ACHN, 0.789 µM (active); with CAKI-1, 1.4 µM (inactive); in the assay with COLO 205, 1.93 µM (inactive); in the assay on HCT-116 it was 0.434 µM (active); with IGROV-1, 1.65 µM (inactive). In addition, the GI50 in the assay on KM12 was 1.5 µM (inactive); in the assay with M14, 1.58 µM (inactive); in the assay with MDA-MB-435, 1.84 µM (inactive); in the assay with NCI-H23 it was 0.869 µM (active); with SF-268, 1.06 µM (active); with SF-539 it was 1.79 µM (inactive). Further, the GI50 with SK-MEL-2 is 1.89 µM (inactive); in the assay on SK-MEL-5, 1.93 µM (inactive); in the assay on SR, 0.324 µM (active); in the assay on U-251, 1.22 µM (inactive); with UACC-62 it was 1.68 µM (inactive).

In the case of `CC(C)(C)n1c(=O)n(-c2ccccc2)n(C(C)(C)C)c1=O`, the GI50 in the assay on A498, with A549, in the assay on ACHN, in the assay on CAKI-1, in the assay with CCRF-CEM and in the assay on COLO 205 was > 100 µM (inactive) in each case. The GI50 in the assay on HCT-116, in the assay on IGROV-1, in the assay on KM12, in the assay with M14, in the assay with MDA-N and in the assay on NCI-H23 was > 100 µM (inactive) throughout. Also, the GI50 in the assay with SF-539, with SK-MEL-2, in the assay on SK-MEL-5, in the assay on SR, in the assay on U-251 and with UACC-62 was > 100 µM (inactive) throughout.

As for `C1CSCCCSCCCSCCCSCCCSCCCSCCCSCCCSC1`, the GI50 in the assay with A498, in the assay on A549, in the assay on ACHN, in the assay on CAKI-1, in the assay with CCRF-CEM and in the assay on COLO 205 was > 100 µM (inactive) throughout. Moreover, the GI50 in the assay with HCT-116, in the assay on IGROV-1, with KM12, with M14, in the assay with MDA-MB-435 and in the assay on MDA-N was > 100 µM (inactive) each time. Besides, the GI50 in the assay on NCI-H23 was > 100 µM (inactive); with SF-268, > 100 µM (inactive); in the assay on SF-539, > 100 µM (inactive); with SK-MEL-2 it was > 100 µM (inactive); in the assay on SK-MEL-5, 85.9 µM (inactive); in the assay on U-251, > 100 µM (inactive).

As for `C=C1[C@@H]2CCC3[C@]4(C)C(CC[C@@]5(C)C(=O)O[C@H](O)[C@@H]45)[C@H](O)[C@]3(C2)[C@H]1OC1OC(CO)C(O)C(O)C1O` (some centres undefined), the GI50 with A498, in the assay on A549, with ACHN, in the assay on COLO 205, with HCT-116 and with IGROV-1 was > 50 µM (inactive) in each case. For the same compound, the GI50 in the assay with KM12, with M14, in the assay on MDA-N, in the assay with NCI-H23, in the assay on SF-268 and in the assay with SF-539 was > 50 µM (inactive) throughout. The GI50 with SK-MEL-2, with SK-MEL-5, in the assay with U-251 and in the assay on UACC-62 was > 50 µM (inactive) throughout.

Regarding `CC(=O)c1sc2c(c1O)c(=O)n(-c1ccccc1)c(=S)n2-c1ccccc1`, the GI50 with A549 was > 100 µM (inactive); with CCRF-CEM, > 10 µM (inactive); in the assay on COLO 205, > 100 µM (inactive); in the assay on IGROV-1, > 100 µM (inactive); in the assay on KM12, > 100 µM (inactive); in the assay on M14, > 100 µM (inactive). Moreover, the GI50 in the assay with MDA-MB-435, in the assay on MDA-N, with NCI-H23, with SF-268, in the assay with SK-MEL-2 and with SK-MEL-5 was > 100 µM (inactive) throughout. The GI50 in the assay on U-251 and with UACC-62 was > 100 µM (inactive) each time.

In the case of `O=S(=O)(c1ccccc1)n1c(C(O)c2ccccc2)cc2ccccc21` (centres undefined), the GI50 in the assay on A498 was 10.2 µM (inactive); in the assay on A549 it was 14.5 µM (inactive); in the assay with ACHN, 15.7 µM (inactive); in the assay on CAKI-1 it was 17.7 µM (inactive); in the assay on CCRF-CEM, 9.46 µM (inactive); in the assay on COLO 205, 15.9 µM (inactive). Further, the GI50 in the assay with HCT-116 is 16.5 µM (inactive); in the assay on IGROV-1, 15.5 µM (inactive); with KM12, 15 µM (inactive); with M14, 14.9 µM (inactive); in the assay with MDA-MB-435, 16.6 µM (inactive); in the assay with NCI-H23, 18.9 µM (inactive). Also, the GI50 is 16.3 µM (inactive) in the assay with SF-268; 16.7 µM (inactive) in the assay on SF-539; 17.1 µM (inactive) in the assay with SK-MEL-2; 14.6 µM (inactive) in the assay with SK-MEL-5; 16.7 µM (inactive) in the assay with U-251; 12.9 µM (inactive) in the assay on UACC-62.

Take `COc1cc(/C=C2\[C@H]3c4c(c(OC)c(C)c(OC)c4OC)C[C@@H](C(=O)N2Cc2ccccc2)N3C(=O)OCC(C)C)c(OC)c(C)c1OC`: the GI50 was > 65.9 µM (inactive) with A498; > 71.1 µM (inactive) in the assay on A549; > 64.3 µM (inactive) in the assay with ACHN; 23.6 µM (inactive) in the assay on CAKI-1; 33.6 µM (inactive) in the assay with CCRF-CEM; > 86.3 µM (inactive) in the assay with COLO 205. Besides, the GI50 in the assay with HCT-116 is 12.1 µM (inactive); with IGROV-1 it was > 77.8 µM (inactive); in the assay with KM12 it was > 100 µM (inactive); with M14, > 100 µM (inactive); in the assay on NCI-H23, > 100 µM (inactive); in the assay on SF-268 it was > 100 µM (inactive). For the same compound, the GI50 with SF-539 is > 100 µM (inactive); in the assay on SK-MEL-2 it was > 100 µM (inactive); in the assay on SK-MEL-5 it was 26.2 µM (inactive); in the assay on SR, 13.3 µM (inactive); in the assay with U-251, > 85.5 µM (inactive); in the assay with UACC-62 it was > 100 µM (inactive).

Regarding `COC(=O)c1cc(-c2ccc(-c3ccc(O)cc3)cc2)cc(-c2ccc(-c3ccc(O)cc3)cc2)c1`, the GI50 with A498 is 16.4 µM (inactive); in the assay on A549, 8.45 µM (inactive); in the assay with ACHN, 8.71 µM (inactive); in the assay on CAKI-1, 16 µM (inactive); with CCRF-CEM it was 14.8 µM (inactive); with COLO 205, 12.6 µM (inactive). The GI50 is 5.64 µM (inactive) in the assay with HCT-116; 6.44 µM (inactive) in the assay with IGROV-1; 2.17 µM (inactive) with KM12; 13.4 µM (inactive) with M14; 10.4 µM (inactive) with MDA-MB-435; 11 µM (inactive) in the assay with MDA-N. Further, the GI50 with NCI-H23 was 8.51 µM (inactive); with SF-268, 4.04 µM (inactive); in the assay on SF-539, 5.33 µM (inactive); in the assay with SK-MEL-2, 15.3 µM (inactive); in the assay with SK-MEL-5 it was 17 µM (inactive).

As to `O=C1OC(O)C(Oc2c(Cl)cccc2Cl)=C1Cl` (centres undefined), the GI50 with A498 is 22.2 µM (inactive); in the assay with A549, 17.2 µM (inactive); with ACHN, 17.2 µM (inactive); in the assay on CAKI-1 it was 18.9 µM (inactive); with CCRF-CEM it was 19.9 µM (inactive); with COLO 205 it was 16.5 µM (inactive). In addition, the GI50 with HCT-116 is 14.8 µM (inactive); with IGROV-1, 17.2 µM (inactive); in the assay with KM12, 22.3 µM (inactive); in the assay with M14, 17 µM (inactive); in the assay with NCI-H23, 17.7 µM (inactive); with SF-268, 16 µM (inactive). Further, the GI50 in the assay with SF-539 is 17 µM (inactive); in the assay with SK-MEL-2, 15.3 µM (inactive); in the assay with SK-MEL-5, 14.2 µM (inactive); with SR, 21.7 µM (inactive); in the assay with U-251 it was 13.8 µM (inactive); in the assay on UACC-62, 11.9 µM (inactive).
